In PubChem BioAssay (NCI):
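Interpolation was linear, between the two tested concentrations surrounding the appropriate level; five concentrations were tested over 48 hours in 96-well plates. Here, GI50 denotes the concentration required for 50% inhibition of growth. The concentration for full growth arrest is given as TGI.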

What was measured:
Experiment in all cases: NCI anticancer screen, dose series, 48 h
[1] = test system: HOP-62 NSCLC
[2] = test system: CAKI-1 renal
[3] = test system: ACHN renal
[4] = test system: HCT-116 colon
[5] = test system: MDA-MB-231 breast
[6] = test system: SN12C renal
[7] = test system: NCI-H23 lung
[8] = test system: LOX IMVI melanoma
[9] = test system: MOLT-4 leukemia
[10] = test system: DU-145 prostate

| Compound | GI50 [1] [µM] | TGI [1] [µM] | GI50 [2] [µM] | TGI [2] [µM] | GI50 [3] [µM] | TGI [3] [µM] | GI50 [4] [µM] | TGI [4] [µM] | GI50 [5] [µM] | TGI [5] [µM] | GI50 [6] [µM] | TGI [6] [µM] | GI50 [7] [µM] | TGI [7] [µM] | GI50 [8] [µM] | TGI [8] [µM] | GI50 [9] [µM] | TGI [9] [µM] | GI50 [10] [µM] | TGI [10] [µM] |
| --- | --- | --- | --- | --- | --- | --- | --- | --- | --- | --- | --- | --- | --- | --- | --- | --- | --- | --- | --- | --- |
| C[C@@H](CO)NC(=O)c1cc(-c2ccc(Cl)cc2)nn(-c2cnn(C)c2)c1=O | 41.8 | > 100 | 10.4 | > 100 | 15.4 | 67.2 | 19.1 | > 100 | 51.5 | > 100 | 19.3 | > 100 | 27.9 | > 100 | 14.6 | 37.2 | 15.9 | 91.5 | 29.6 | > 100 |
| NC(CSSCC(N)C(=O)O)C(=O)O (stereo not drawn) | > 100 | > 100 | > 100 | > 100 | > 100 | > 100 | > 100 | > 100 | > 100 | > 100 | > 100 | > 100 | > 100 | > 100 | > 100 | > 100 | > 100 | > 100 | > 100 | > 100 |
| CC1(C)O[C@@H]2C[C@H]3[C@@H]4C[C@H](F)C5=CC(=O)C=C[C@]5(C)[C@@]4(F)[C@@H](O)C[C@]3(C)[C@]2(C(=O)CO)O1 |  | > 100 |  | > 100 |  | > 100 |  | > 100 |  | > 100 |  | > 100 |  | > 100 |  | > 100 |  | > 100 |  | > 100 |
| C=Cn1c([N+](=O)[O-])cnc1/C=C/c1ccc(C(=O)OCCN2CCOCC2)cc1 |  | > 100 |  | > 100 |  | > 100 |  | > 100 |  | > 100 |  | > 100 |  | > 100 |  | > 100 |  | > 100 |  | > 100 |
| CN(CCCCCl)P(=O)(OCc1ccc([N+](=O)[O-])o1)OCC1OC(n2cnc([N+](=O)[O-])c2N)C(O)C1O (stereo not drawn) | > 100 | > 100 | > 100 | > 100 | > 100 | > 100 | > 100 | > 100 | > 100 | > 100 | > 100 | > 100 | > 100 | > 100 | > 100 | > 100 | > 100 | > 100 | > 100 | > 100 |
| Cc1ccc(C2NC(=O)c3ccccc3N2)c(C)c1 (stereo not drawn) |  | > 100 |  | 18.6 |  | > 100 |  | > 100 |  | > 100 |  | > 86.5 |  | > 87 |  | > 100 |  | > 100 |  | > 100 |
| CN(C)c1ccc(/C=N/S(=O)(=O)c2ccc(-n3c(-c4ccccc4)nc4c(Br)cc(Br)cc4c3=O)cc2)cc1 | 47.7 | > 100 | 47.5 | > 100 | 40.4 | > 100 | 33.2 | > 100 | 44 | > 100 | 43.4 | > 100 | 37.7 | 92.6 | 46.1 | > 100 | 33.3 | > 80.5 | 32.6 | > 90.2 |
| Cc1nc2cc(Nc3nc(Nc4ccc(F)cc4)nc(N4CCOCC4)n3)ccc2n1Cc1ccccc1 | 9.06 | 24 | 3.89 | 18.5 | 3.05 | 13.1 | 1.98 | 4 | 3.36 | 14.7 | 4.63 | 27.4 | 6.43 | 30.6 | 4.3 | 20.7 | 2.7 | 8.04 | 4.81 | 18.8 |
| CCSC[C@@H]1C[C@](O)(c2ccc(F)cc2)[C@@H](c2ccc(F)cc2)O1 | 18.2 | 33.4 | 18.2 | 39.7 | 18.4 | 32.6 | 12.1 | 29.2 | 15.3 | 30.1 | 17.9 | 33.3 | 19.1 | 46.6 | 17.3 | 32.2 | 3.21 | 11.1 | 15.1 | 28.4 |
| CC1SC2(CCCCC2)N(NC(=O)c2[nH]c3ccc(Br)cc3c2-c2ccccc2)C1=O (stereo not drawn) | 37 | > 100 | 62.5 | > 100 | 61.3 | > 100 | 10.2 | > 100 | 20.4 | 79.6 | 4.66 | 30.6 | 30.7 | > 100 | 92.7 | > 100 | 3.95 | > 100 | > 100 | > 100 |
| CC(=O)O[C@H]1CC[C@@]2(C)C(=C/C(=N/OCCN3CCCC3)[C@H]3[C@@H]4CC[C@H](OC(C)=O)[C@@]4(C)CC[C@@H]32)C1 | 29.2 | > 100 | > 100 | > 100 | > 100 | > 100 | 27.8 | > 100 | 38.7 | > 100 | > 100 | > 100 | > 100 | > 100 | 19.6 | 38.1 | 29.6 | 84.3 | > 100 | > 100 |
| Cc1cc(S(=O)(=O)Nc2n[nH]c(N)n2)c(Cl)cc1Cl |  | > 10 |  | > 10 |  | > 10 |  | > 10 |  | > 10 |  | > 10 |  | > 10 |  | > 10 |  | > 10 |  | > 10 |
| COC(=O)[C@H](Cc1cn(C)cn1)NC(=O)[C@H](C)NC(=O)Nc1cc(C(F)(F)F)cc(C(F)(F)F)c1 | > 10 | > 10 | > 10 | > 10 | > 10 | > 10 | > 10 | > 10 | > 10 | > 10 | > 10 | > 10 | > 10 | > 10 | > 10 | > 10 | > 10 | > 10 | > 10 | > 10 |
| Cc1cccc2c3c(sc12)C(c1ccc(F)cc1)C(C#N)=C(N)O3 (stereo not drawn) | 0.127 | 12.9 | 0.0466 | 12.5 | 0.0658 | 13.2 | 0.052 | 3.43 | 0.346 | 8.4 | 0.159 | 11.7 | 0.127 | 12 | 0.0608 | 5.2 | 0.137 | 26.6 | 0.151 | 13 |
| CCC(C)C(=O)OCC(=O)c1ccc(-c2ccccc2)cc1 (stereo not drawn) |  | > 100 |  | > 100 |  | > 100 |  | > 100 |  | > 100 |  | > 100 |  | > 100 |  | > 100 |  | > 100 |  | > 100 |
| CC(=O)NC1=NC(=O)/C(=C/c2ccc(/C=C3/C(=O)N=C(NC(C)=O)N3C)cc2)N1C |  | > 100 |  | > 100 |  | > 100 |  | > 100 |  | > 100 |  | > 100 |  | > 100 |  | > 100 |  | > 100 |  | > 100 |
| CCCCCCNCc1cc(C(C)(C)C)cc(CNCCCCCC)c1O | 1.58 | 2.93 | 1.69 | 3.08 | 1.62 | 2.97 | 1.7 | 3.07 | 1.35 | 2.7 | 1.7 | 3.15 | 1.71 | 3.29 | 1.58 | 2.94 | 1.84 | 3.84 | 1.8 | 3.21 |
| CC1OC(CC(=O)O)CC2=C1C(=O)c1c(O)cccc1C2=O (stereo not drawn) |  | 2.94 |  | 0.334 |  | 0.658 |  | 0.243 |  | 0.707 |  | 0.716 |  | 1.51 |  | 0.111 |  | 0.115 |  | 2.5 |
| NC(=O)c1sc(-n2cnc3cc(C(F)(F)F)ccc32)cc1OCc1ccccc1Br | 6.49 | > 16.9 | > 25 | > 25 | > 22.4 | > 25 | > 16 | > 25 | > 17.6 | > 25 | 24.6 | > 25 | > 25 | > 25 | > 17.5 | > 25 | > 25 | > 25 | > 25 | > 25 |
| O=C(CCCN1CCC(C(O)c2ccc(F)cc2)CC1)c1ccc(F)cc1 (stereo not drawn) |  | 125 |  | 114 |  | 99.9 |  | 116 |  | 89.7 |  | 141 |  | 134 |  | 103 |  | 142 |  | 118 |
| N#CC(C#N)=C/C=C(\Sc1ccc(F)cc1Cl)c1ccc(Cl)cc1 | 0.904 | 3.42 | 0.427 | 3.61 | 0.883 | 2.14 | 0.366 | 1.89 | 0.478 | 2.27 | 0.365 | 1.34 | 0.449 | 2.49 | 0.318 | 1.3 | 0.194 | > 100 | 0.657 | 8.55 |
| NC1(Cc2ccc(Cl)cc2)CCN(c2ncnc3[nH]ccc23)CC1 | 3.63 | 17.2 | 3.94 | 19.3 | 5.58 | 32.1 | 5.18 | 38.7 | 6.9 | 26.9 | 4.4 | 28.8 | 4.55 | 21 | 4.43 | 17.7 | 1.91 | 17.3 | 9.37 | 25.1 |
| CC(=O)OC1=CC2(OC(C)=O)CC(C)(C)C1C1C(=O)C=CC(=O)C12 (stereo not drawn) |  | > 100 |  | > 100 |  | 45.9 |  | > 89.4 |  | > 100 |  | > 80.5 |  | > 100 |  | > 56.1 |  | > 100 |  | > 100 |
| COc1cc2c(c(OC)c1OC)-c1ccc(N=NC(N)=S)c(=O)cc1[C@@H](NC(C)=O)CC2 | 1.8 | > 100 | > 24.4 | > 100 | 5.08 | > 100 | 0.396 |  | 0.592 | > 27.7 | 1.52 | > 100 | 0.347 | > 100 | 0.618 | > 100 | 1.3 | > 100 | 0.655 | 4.66 |
| CC(C)(C)N/N=C(\C(=O)NC1=C(Cl)C(=O)c2ccccc2C1=O)C1C=CCS1(=O)=O (stereo not drawn) |  |  |  | 45.6 |  | 55.3 |  | 35 |  | 32.4 |  | 31.6 |  | 24.2 |  | 39.7 |  | > 100 |  | 23.2 |
| CC(=O)Nc1n[n+]([O-])c2cc(C)ccc2[n+]1[O-] |  | 11.4 |  | 12 |  | 11.2 |  | 13.5 |  | 23.4 |  | 18.8 |  | 9.32 |  | 11.5 |  | > 100 |  | 18.4 |
| CCN1C(=NCCO)NS(=O)(=O)c2ccccc21 |  | > 100 |  | > 100 |  | > 100 |  | > 100 |  | > 100 |  | > 100 |  | > 100 |  | > 100 |  | > 100 |  | > 100 |
| CN(C)c1cccc(F)c1C(=O)NC(=O)Nc1ccc(Cl)cc1 |  | > 100 |  | 99 |  | > 100 |  | > 100 |  | > 72.1 |  | > 100 |  | > 100 |  | > 100 |  | > 100 |  | > 100 |
| CC1=Nc2c([nH]c(=S)[nH]c2=O)NC(c2c(Cl)cccc2Cl)C1 (stereo not drawn) |  | 13.6 |  | 14.8 |  | 11 |  | 1.59 |  | 1.87 |  | 3.09 |  | 7.4 |  | 1.84 |  | 5.43 |  | 3.51 |
| O=C1N(Cc2ccccc2Cl)c2ccccc2C12NN=C(c1cccc(Cl)c1)S2 (stereo not drawn) | 1.55 | 2.89 | 1.69 | 3.07 | 1.81 | 3.43 | 1.62 | 2.98 | 2.02 | 4.2 | 1.91 | 3.92 | 1.63 | 3.67 | 1.49 | 2.92 | 2.04 | 4.64 | 1.7 | 3.26 |
